# ChEMBL document CHEMBL5725720, “Pyrazolopyridines and pyrazolopyrimidines” (2016)
# Tests used:
# [1] = biological target: Tyrosine-protein kinase JAK2 (Homo sapiens, UniProt O60674); assay: (§1) JAK Caliper Enzyme Assay at 1 mM ATP: Test article was solubilized in dimethyl sulfoxide (DMSO) to a stock concentration of 30 mM. An 11-point half log dilution series was created in DMSO with a top concentration of 600 μM. […] The compound plates were diluted 1 to 60 resulting in a top final assay compound concentration of 10 μM and a 2% DMSO concentration.Test article and assay controls were added to a 384-well plate. Reaction mixtures contained 20 mM HEPES, pH 7.4, 10 mM magnesium chloride, 0.01% bovine serum albumin (BSA), 0.0005% Tween 20, 1 mM ATP and 1 μM peptide substrate. […] Enzyme concentrations and incubation times were optimized for each new enzyme preps and were modified slightly over time to ensure 20%-30% phosphorylation. The assays were stopped with a final concentration of 10 mM EDTA, 0.1% Coating Reagent and 100 mM HEPES, pH=7.4. The assay plates were placed on a Caliper Life Science Lab Chip 3000 (LC3000) instrument, and each well was sampled using appropriate separation conditions to measure the unphosphorylated and phosphorylated peptide.
# Chain of Tyrosine-protein kinase JAK2 (O60674 whole entry): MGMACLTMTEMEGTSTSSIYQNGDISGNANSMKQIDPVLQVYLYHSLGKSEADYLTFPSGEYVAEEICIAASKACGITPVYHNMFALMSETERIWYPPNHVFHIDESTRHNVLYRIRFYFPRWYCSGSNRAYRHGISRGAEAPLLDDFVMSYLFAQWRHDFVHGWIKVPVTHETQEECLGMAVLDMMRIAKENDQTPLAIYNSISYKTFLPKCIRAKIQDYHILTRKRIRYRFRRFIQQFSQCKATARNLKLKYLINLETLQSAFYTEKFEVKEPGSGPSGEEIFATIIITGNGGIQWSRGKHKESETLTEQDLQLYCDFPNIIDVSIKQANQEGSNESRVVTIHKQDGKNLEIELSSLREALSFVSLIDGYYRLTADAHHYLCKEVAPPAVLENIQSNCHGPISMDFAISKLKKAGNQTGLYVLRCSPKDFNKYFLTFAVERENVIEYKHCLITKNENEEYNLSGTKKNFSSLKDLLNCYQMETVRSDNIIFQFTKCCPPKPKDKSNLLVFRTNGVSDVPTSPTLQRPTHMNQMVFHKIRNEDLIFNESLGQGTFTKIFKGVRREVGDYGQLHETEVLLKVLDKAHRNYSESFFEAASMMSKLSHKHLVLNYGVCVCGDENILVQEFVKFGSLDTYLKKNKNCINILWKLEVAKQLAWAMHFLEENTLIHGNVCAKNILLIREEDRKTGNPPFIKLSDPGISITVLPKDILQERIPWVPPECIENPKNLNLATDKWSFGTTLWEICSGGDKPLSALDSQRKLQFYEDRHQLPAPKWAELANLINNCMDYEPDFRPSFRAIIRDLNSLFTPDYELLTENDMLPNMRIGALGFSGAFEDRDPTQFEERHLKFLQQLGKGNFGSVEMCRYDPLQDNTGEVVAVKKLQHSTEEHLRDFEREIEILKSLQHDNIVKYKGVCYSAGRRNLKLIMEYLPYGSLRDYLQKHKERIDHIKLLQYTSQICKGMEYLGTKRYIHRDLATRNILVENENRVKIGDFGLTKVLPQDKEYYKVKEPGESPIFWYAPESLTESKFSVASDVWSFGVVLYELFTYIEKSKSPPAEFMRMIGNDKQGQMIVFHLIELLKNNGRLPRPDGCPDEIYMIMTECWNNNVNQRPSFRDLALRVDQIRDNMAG
# [2] = biological target: Non-receptor tyrosine-protein kinase TYK2 (Homo sapiens, UniProt P29597); assay: as §1, with “substrate. The JAK1 and TYK2 assays contained 1 μM of the IRStide peptide (5FAM-[…]) and the JAK2 and JAK3 assays contained 1 μM of the JAKtide peptide (FITC-[…]).” for “substrate.”
# Chain of Non-receptor tyrosine-protein kinase TYK2 (P29597 whole entry): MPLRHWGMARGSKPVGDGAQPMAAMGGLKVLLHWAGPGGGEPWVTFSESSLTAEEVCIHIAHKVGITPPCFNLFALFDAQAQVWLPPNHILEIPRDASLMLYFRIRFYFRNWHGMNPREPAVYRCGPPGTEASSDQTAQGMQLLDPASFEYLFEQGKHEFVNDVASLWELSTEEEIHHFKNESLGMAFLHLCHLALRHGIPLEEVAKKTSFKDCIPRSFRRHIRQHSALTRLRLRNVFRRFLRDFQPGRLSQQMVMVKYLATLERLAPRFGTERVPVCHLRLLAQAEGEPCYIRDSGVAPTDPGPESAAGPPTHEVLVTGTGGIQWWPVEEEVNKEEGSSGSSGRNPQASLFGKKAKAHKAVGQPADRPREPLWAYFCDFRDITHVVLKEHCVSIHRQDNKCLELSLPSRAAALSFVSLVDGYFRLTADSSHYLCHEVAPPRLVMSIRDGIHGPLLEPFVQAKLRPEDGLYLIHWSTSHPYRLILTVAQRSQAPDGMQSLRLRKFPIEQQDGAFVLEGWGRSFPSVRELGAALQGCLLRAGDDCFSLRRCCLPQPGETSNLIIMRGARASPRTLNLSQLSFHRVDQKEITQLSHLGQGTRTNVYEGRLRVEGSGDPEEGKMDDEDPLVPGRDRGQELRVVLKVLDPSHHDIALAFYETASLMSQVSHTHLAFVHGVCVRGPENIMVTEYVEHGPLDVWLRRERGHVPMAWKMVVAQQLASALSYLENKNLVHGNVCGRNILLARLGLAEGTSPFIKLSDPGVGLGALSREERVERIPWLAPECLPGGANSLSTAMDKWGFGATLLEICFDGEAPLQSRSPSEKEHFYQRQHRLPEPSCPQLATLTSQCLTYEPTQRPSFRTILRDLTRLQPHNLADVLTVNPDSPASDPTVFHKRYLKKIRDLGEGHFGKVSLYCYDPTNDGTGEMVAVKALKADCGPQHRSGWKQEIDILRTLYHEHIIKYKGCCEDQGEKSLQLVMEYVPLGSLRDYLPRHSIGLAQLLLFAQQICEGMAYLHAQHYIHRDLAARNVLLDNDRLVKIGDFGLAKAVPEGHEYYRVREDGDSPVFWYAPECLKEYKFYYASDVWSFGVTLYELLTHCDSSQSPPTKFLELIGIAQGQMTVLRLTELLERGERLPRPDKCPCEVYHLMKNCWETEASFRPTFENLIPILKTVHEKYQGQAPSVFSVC
# [3] = biological target: Tyrosine-protein kinase JAK1 (Homo sapiens, UniProt P23458); assay: as above
# Chain of Tyrosine-protein kinase JAK1 (P23458 whole entry): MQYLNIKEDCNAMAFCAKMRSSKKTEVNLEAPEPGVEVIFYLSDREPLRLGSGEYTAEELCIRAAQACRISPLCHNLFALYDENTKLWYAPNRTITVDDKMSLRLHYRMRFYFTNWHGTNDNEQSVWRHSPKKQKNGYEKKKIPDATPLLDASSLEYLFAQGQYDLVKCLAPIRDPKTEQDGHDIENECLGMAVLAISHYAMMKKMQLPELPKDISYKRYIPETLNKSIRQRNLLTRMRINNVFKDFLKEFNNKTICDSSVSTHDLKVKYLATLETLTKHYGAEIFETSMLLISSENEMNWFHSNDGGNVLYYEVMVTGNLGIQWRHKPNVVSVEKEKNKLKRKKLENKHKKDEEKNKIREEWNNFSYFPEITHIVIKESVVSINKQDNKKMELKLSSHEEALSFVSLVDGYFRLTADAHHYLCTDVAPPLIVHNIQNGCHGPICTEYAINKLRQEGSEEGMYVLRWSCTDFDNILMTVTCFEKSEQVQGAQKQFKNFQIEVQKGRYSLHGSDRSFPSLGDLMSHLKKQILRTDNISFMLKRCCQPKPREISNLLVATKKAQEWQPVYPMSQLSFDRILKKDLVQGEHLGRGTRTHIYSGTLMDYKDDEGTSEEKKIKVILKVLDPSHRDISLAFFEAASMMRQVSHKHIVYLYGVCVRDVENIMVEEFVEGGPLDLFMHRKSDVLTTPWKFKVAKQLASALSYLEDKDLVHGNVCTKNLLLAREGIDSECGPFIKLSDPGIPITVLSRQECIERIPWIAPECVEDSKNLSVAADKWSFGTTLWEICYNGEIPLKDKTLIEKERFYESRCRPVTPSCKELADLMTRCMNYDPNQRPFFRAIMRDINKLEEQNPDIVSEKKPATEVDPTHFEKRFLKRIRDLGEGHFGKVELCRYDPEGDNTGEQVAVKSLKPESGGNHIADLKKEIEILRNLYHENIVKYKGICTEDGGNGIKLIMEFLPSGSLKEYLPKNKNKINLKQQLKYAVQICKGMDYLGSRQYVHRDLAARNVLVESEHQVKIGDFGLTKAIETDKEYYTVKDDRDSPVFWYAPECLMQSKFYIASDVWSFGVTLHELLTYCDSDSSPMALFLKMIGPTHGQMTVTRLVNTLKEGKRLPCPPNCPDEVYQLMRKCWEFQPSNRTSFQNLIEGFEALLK
# [4] = biological target: T1, Tyrosine-protein kinase JAK3 (Homo sapiens, UniProt P52333); assay: as above
# T1 sequence (P52333 whole entry): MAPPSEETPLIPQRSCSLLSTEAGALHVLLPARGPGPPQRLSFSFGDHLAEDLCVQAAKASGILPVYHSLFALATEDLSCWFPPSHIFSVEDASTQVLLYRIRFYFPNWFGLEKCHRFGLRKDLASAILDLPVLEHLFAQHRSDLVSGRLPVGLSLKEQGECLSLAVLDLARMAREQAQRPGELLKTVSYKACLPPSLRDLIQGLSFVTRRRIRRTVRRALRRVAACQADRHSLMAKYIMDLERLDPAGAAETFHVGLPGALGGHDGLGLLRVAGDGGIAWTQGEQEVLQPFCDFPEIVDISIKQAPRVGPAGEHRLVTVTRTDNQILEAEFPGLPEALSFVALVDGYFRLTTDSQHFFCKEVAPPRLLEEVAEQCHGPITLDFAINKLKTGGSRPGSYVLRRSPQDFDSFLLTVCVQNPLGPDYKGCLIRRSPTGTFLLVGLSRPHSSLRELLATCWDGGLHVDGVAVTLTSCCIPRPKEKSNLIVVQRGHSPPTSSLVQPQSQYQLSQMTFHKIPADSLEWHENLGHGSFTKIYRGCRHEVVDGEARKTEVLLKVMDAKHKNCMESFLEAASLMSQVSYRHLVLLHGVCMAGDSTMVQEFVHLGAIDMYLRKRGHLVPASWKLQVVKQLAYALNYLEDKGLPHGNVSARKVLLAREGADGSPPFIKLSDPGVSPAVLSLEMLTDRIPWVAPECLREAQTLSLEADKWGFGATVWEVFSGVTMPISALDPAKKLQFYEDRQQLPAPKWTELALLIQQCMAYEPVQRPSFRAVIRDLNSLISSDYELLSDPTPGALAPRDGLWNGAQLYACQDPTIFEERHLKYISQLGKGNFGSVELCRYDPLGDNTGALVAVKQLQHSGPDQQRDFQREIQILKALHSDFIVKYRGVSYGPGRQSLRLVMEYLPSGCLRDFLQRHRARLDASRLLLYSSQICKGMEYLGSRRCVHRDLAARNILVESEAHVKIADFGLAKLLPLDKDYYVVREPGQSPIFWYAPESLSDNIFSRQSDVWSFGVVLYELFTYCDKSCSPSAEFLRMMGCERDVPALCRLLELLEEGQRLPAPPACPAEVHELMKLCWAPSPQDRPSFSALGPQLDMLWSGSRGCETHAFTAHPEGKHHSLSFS
Compound,IC50 [1] [nM],IC50 [2] [nM],IC50 [3] [nM],IC50 [4] [nM]
CN(c1ccc(O)cc1CNc1nc(-c2cc(F)c(O)cc2CC(F)(F)F)nc2[nH]nc(C(N)=O)c12)S(=O)(=O)c1ccccc1,123,–,–,–
CCc1cc(O)ccc1-c1cc2[nH]ncc2c(N2CCc3cc(F)ccc3C2)n1,16.9,302,9.7,40.8
CCc1cc(O)ccc1-c1cc2[nH]ncc2c(N2CCc3cc(-n4cnc(C)c4)ccc3C2)n1,26.3,723,10.7,42.4
CCc1cc(O)ccc1-c1cc2[nH]ncc2c(N2CCc3cc(OC)c(OCc4ccccc4)cc3C2)n1,–,2730,67.4,340
CC(=O)N1CCc2[nH]c(-c3n[nH]c4nc(-c5cc(F)c(O)cc5CC(F)(F)F)nc(NCc5cc(O)ccc5N(C)S(C)(=O)=O)c34)nc2C1,–,–,3.2,–
CSCCNc1nc(-c2cc(F)c(O)cc2CC(F)(F)F)cc2[nH]nc(-c3nc4c([nH]3)CCN(Cc3ccccc3)C4)c12,196,172,50,589
CCc1cc(O)c(F)cc1-c1cc2[nH]ncc2c(NCc2ccccc2N(C)S(=O)(=O)CC)n1,–,8.4,0.7,17.3
CCCCN(c1ccccc1CN(C)c1nc(-c2cc(F)c(O)cc2CC)cc2[nH]ncc12)S(C)(=O)=O,43.2,–,19.5,61.6
CN(c1ccc(F)cc1CNc1nc(-c2cc(F)c(O)cc2CC(F)(F)F)cc2[nH]nc(C(N)=O)c12)S(C)(=O)=O,41.1,127,6.6,140
CCc1cc(O)ccc1-c1cc2[nH]ncc2c(N2CCc3cc(OCCOC)ccc3C2)n1,25.9,289,10.1,56.2
CCc1cc(O)ccc1-c1cc2[nH]ncc2c(N2CCc3cccc(OC)c3C2)n1,25.1,478,–,78.1
CCc1cc(O)ccc1-c1cc2[nH]ncc2c(N2CCc3ccc(OC)c(OC)c3C2)n1,52.4,1540,13.8,194
CCc1cc(O)ccc1-c1cc2[nH]ncc2c(N2CCc3c(Cl)cccc3C2)n1,46.5,561,39.4,111
